From patent US11814623B2, “Methods of treating a wound using epigenetic regulation” (University of Massachusetts, priority 2018, dated 2023) come the findings set out here.

For one data set, the system named is HSCs from db/db mice. As to the kind of experiment: Intracellular ROS (DCF) in HSCs of db/db mice given NAC. The class given is in vivo, mouse. The following applies: NAC 150 mg/kg/day via drinking water for 8 weeks, FIG. 6A. An excerpt:
8-12 weeks old male C57BL/6J wild type (WT) and […] (db/db) mice were used in the studies. All mice were purchased from Jackson Laboratories and were maintained in mouse barrier facilities. Care and use of mice was in accordance with NIH guidelines and the Institutional Animal Care and Use Committee of the University of Massachusetts Medical School approved protocols. db/db and WT mice were fed standard chow diet (5.4 g/100 g diet, 0% cholesterol) and HFD mice were generated by feeding C57BL/6J mice a high fat diet (60% fat calories; Research Diet, New Brunswick, N.J.). N-acetylcysteine (NAC) was given for 8 weeks (150 mg/kg/day via drinking water. Whole bone marrow cells were flushed out from femurs and tibialis. Bone marrow cells were stained with antibodies for the identification of HSCs (c-Kit^+Scal^+lineage^-CD90.1^lo/-). The antibodies used were: c-Kit (1:50, eBioscience 12-1171, clone: 2B8), Sca-1 (1:50, eBioscience 11-5981, clone: D7), CD90.1 (1:50, eBioscience 45-0900, clone:[…]) and a lineage cocktail antibody (1:50, BD Bioscience 558074). As for the gating strategy for flow cytometry, we first gated on single, viable cells and eliminated any debris, dead cells and clumps or doublets. Next, gates were drawn on the c-Kitpositive/Scal-positive/lineage-negative/CD90.1^low-negative population for HSC sorting. […]

Data set [1] has as its system bone marrow monocytes of db/db mice. As to the kind of experiment: CD115+CD11b+ monocyte concentration in bone marrow by flow cytometry. The class given is in vivo, mouse. The following applies: NAC 150 mg/kg/day via drinking water for 8 weeks, FIG. 6C. The source says: 8-12 weeks old male C57BL/6J wild type (WT) and […] (db/db) mice were used in the studies. All mice were purchased from Jackson Laboratories and were maintained in mouse barrier facilities. Care and use of mice was in accordance with NIH guidelines and the Institutional Animal Care and Use Committee of the University of Massachusetts Medical School approved protocols. db/db and WT mice were fed standard chow diet (5.4 g/100 g diet, 0% cholesterol) and HFD mice were generated by feeding C57BL/6J mice a high fat diet (60% fat calories; Research Diet, New Brunswick, N.J.). N-acetylcysteine (NAC) was given for 8 weeks (150 mg/kg/day via drinking water.
On the technique in general: Flow cytometry measures light scatter and fluorescence of single cells or particles in a stream.

Another data set deals with Dnmt1. As to the kind of experiment: Dnmt1 expression in HSCs (qRT-PCR, Western blot). The class given is cell-based, mouse. Here is the method:
Quantification was performed using ImageJ software.
Total RNA was isolated using the mirVana miRNA isolation kit (Applied Biosystems). cDNA was synthesized using the QuantiMir RT Kit small RNA quantification system (SBI). qRT-PCR was performed as described previously. Mouse U6 was used as an endogenous control. The let-7d-3p mimic and inhibitor were purchased from Life Technologies (catalog numbers 4464066 and 4464084, respectively).
A general note: Real-time PCR tracks product formation cycle by cycle.

The next data set concerns Dnmt3a and DNMT3b. As to the kind of experiment: Dnmt3a and Dnmt3b expression in db/db HSCs (qRT-PCR, Western blot). The following applies: FIGS. 7E-F.
Data set [2] concerns mouse Dnmt1 3′ UTR region. As to the kind of experiment: Dnmt1 3' UTR luciferase reporter assay in HEK293T cells. The class given is cell-based. The conditions noted are these: 48 h post-transfection, FIG. 8C. Here is the method:
(§1) HEK293T cells grown in 96-well plates were transfected with pmirGLO containing the Dnmt1 3′ UTR region that includes the let-7d-3p binding sites. The cells were co-transfected with let-7d-3p using Lipofectamine (Invitrogen). The Firefly and Renilla luciferase activities in the cell lysates were assayed with a Dual-Luciferase Reporter Assay System (Promega) at 48 h post-transfection. To generate the mutant variants, point mutations in the binding sites of let-7d-3p in the 3′-UTR region of Dnmt1 were introduced by PCR according to the site-directed mutagenesis protocol from Agilent. The two mutants that were generated are labeled “Dnmt1 M1” and “Dnmt1 M2”. The binding sequence of let-7d-3p in mouse Dnmt1 3′UTR is: […]
Background: A reporter such as luciferase makes a cellular process visible.

The test system of data set [3] is Dnmt1 M1 and Dnmt1 M2 (mutated let-7d-3p binding sites in Dnmt1 3′ UTR). As to the kind of experiment: Mutant Dnmt1 3' UTR luciferase reporter assay in HEK293T cells. The data set is classed as cell-based, mouse. The conditions noted are these: FIG. 8C. As for the experimental part:
as §1

Data set [4] concerns Notch1, PU.1 and Klf4 genes. As to the kind of experiment: DNA methylation of Notch1, PU.1 and Klf4 by pyrosequencing. The class given is cell-based, mouse. The conditions noted are these: db/db HSCs; FIG. 14A, FIG. 15, FIG. 16. As for the experimental part: Genomic DNA was isolated by traditional phenol-chloroform extraction and isopropanol precipitation. DNA concentration was measured using a Nano Drop spectrophotometer. Around 500 ng genomic DNA were bisulfite converted by EZ DNA methylation-Gold kit following the manufacturer's instructions (Zymo Research). PCR amplification was performed using 2×HiFi Hotstart Uracil+ready mix PCR (Kapa Biosystems). PCR and pyrosequencing primer sets with one biotin-labeled primer were used to amplify the bisulfite converted DNA. Primers were designed using PyroMark Assay Design software version 2.0.1.15 (Qiagen). The size of the amplicons was 200 bp or less. Briefly, 5 μl master mix, […] of each primer, 20 ng genomic DNA and ultra-pure water to a final volume of 10 μl were mixed for each reaction and run at thermal cycling conditions: 95° C. for 3 min and then 50 cycles: 20 sec at 98° C.; 15 sec at the optimized primer-specific annealing temperature; 15 sec at 72° C. and a final extension for 1 min at 72° C. […] PyroGold reagents were used for the pyrosequencing reaction and the signal was analyzed using the PSQ 96MA system (Biotage, Uppsala, Sweden). Target CGs were evaluated by instrument software (PSQ96MA 2.1), which converts the pyrograms to numerical values for peak heights and calculates the methylation at each base as a C/T ratio.

For data set [5], the system named is H3K9me2 and H3K9me3 at Klf4, PU.1 and Notch1 promoters. As to the kind of experiment: ChIP-PCR of H3K9 histone methylation at Notch1, PU.1 and Klf4. The data set is classed as cell-based, mouse. The conditions noted are these: db/db HSCs; FIG. 17B and FIG. 18. Here is the method: 1×10^6 HSCs were sorted and cross-linked with 1% formaldehyde at room temperature for 10 min, and the reaction was stopped by adding Glycine to a final concentration of 0.125M and incubating at room temperature for 5 min. Cross-linked cells were lysed in lysis buffer and sonicated to 200-500 bp fragments (Bioruptor, Diagenode). The sonicated chromatin was centrifuged at 4° C. for 5 min. The cross-linked DNA was immunoprecipitated with H3K9me3, H3K9me2 or H3K9Ac antibodies (Millipore, USA) overnight at 4° C. with rotation, DNA-Antibody complexes were bound to ChIP beads, pulled down, washed and then eluted from the beads. Following reversal of cross-linkage, purified DNA was used for quantitative PCR using ChIP PCR primers purchased from IDT (MA, USA). Immunoprecipitation efficiency was calculated by normalizing sample CT values against control IgG values and calculating ratios of sample CT values relative to input values.

For the molecule `CC(=O)N[C@@H](CS)C(=O)O` [N-acetylcysteine], the “oxidant stress in HSCs (DCF positive cells)” value with HSCs from db/db mice is given as “reversed”. In data set [1], the “monocyte concentration in bone marrow” value is on record as “restored”. For the same molecule, the “expression of DNMT1 in db/db HSCs” value in the data set with Dnmt1 (db/db HSCs, compared with WT HSCs, FIGS. 7E-F) was “restored”. The “mRNA or protein levels of Dnmt3a and DNMT3b” value in the data set with Dnmt3a and DNMT3b is “did not change”.

With “let-7d-3p mimic: let-7d-3p mimic purchased from Life Technologies (catalog number 4464066); microRNA that binds the Dnmt1 3′ UTR (guide CUAUACGACCUGCUGCCUUUCU; chemistry not given here)”, in the data set on Dnmt1 (db/db HSCs transfected, FIGS. 8F-G), the “Dnmt1 expression in db/db HSCs” value is on record as “decreased”. The “luciferase activity, intact 3′ UTR construct” value in data set [2] is given as “significantly repressed”. Further, the “luciferase activity, let-7d-3p binding sites in Dnmt1 3′ UTR mutated” value in data set [3] is “didn't affect”. The “methylation of Notch1, PU.1, Klf4” value in data set [4] is listed as “decreased”. Further, the “histone methylation levels (H3K9me2, H3K9me3)” value in data set [5] was “decreased”.
